Source: patent US9988371B2, “Benzimidazole analogues and related methods” (The Arizona Board of Regents, on Behalf of the University …, priority 2014, dated 2018)

Experiments:
[1] = target: VEGFR2 (Homo sapiens, UniProt P35968); assay: VEGFR2 autophosphorylation immunoblot in HEK293 cells stimulated with VEGF; type: cell-based; design: expressed in transfected cells; host or cells: HEK293
Experimental: FIG. 4: Photograph of blot showing inhibition of VEGFR2 phosphorylation ectopically expressed in HEK293 cells by indicated doses of Pz-1 or vehicle (NT: not treated). HEK293 cells were transiently transfected with vector expressing VEGFR2. 36 hr following transfection, cells were serum-starved for 12 hr, treated for 2 hr with indicated concentrations of Pz-1 and finally treated with VEGF-A (100 ng/ml) for 15 min. 50 μg of total cell lysates were subjected to immunoblotting with anti-phospho-Y1175 (αpVEGFR2) VEGFR2 antibodies. The blot was normalized using anti-VEGFR2 (αVEGFR2) antibody.
The inhibition of RET auto-phosphorylation by Pz-1 was measured in several different cell lines including NIH3T3 fibroblasts expressing RET/C634Y or RET/M918T, TT expressing RET/C634W (MTC), Nthy-ory-3-1 (thyroid, non-transformed with RET; negative control), HEK293/RET/PTC1 (CCDC6-RET that can be found in PTC & lung cancer), HEK293/RET-KIF5B (that can be found in lung cancer), HEK293/RET/PTC3 (NCOA4-RET, that can be found in PTC & lung cancer), and HEK293 transfected with RET/C634R-V804M (FIGS. 1-3). HEK293 cells were transiently transfected with expression vectors comprising the desired mutant. […]
Protein lysates were prepared according to standard procedures. […] Immune complexes were detected with the enhanced chemiluminescence kit (Amersham Pharmacia Biotech, Little Chalfort, UK). […]

[2] = target: CYP3A4 (Homo sapiens, UniProt P08684); assay: CYP inhibition; type: in vitro ADME; details: read-out: CYP 3A4 IC50
[3] = test system: RET/C634Y transformed NIH3T3 fibroblasts; assay: NIH3T3 RET/C634Y tumors in nude mice; type: in vivo, BALB/c nu/nu mice; details: 1.0, 3.0 or 10 mg/kg daily, oral gavage
Excerpt: FIG. 8: Anti-tumorigenic activity of Pz-1 in nude mice implanted with RET/C634Y or HRAS(G12V) transformed NIH3T3 fibroblasts. […] Average tumor volume (±SD: standard deviations) is reported. NIH3T3 RET/C634Y (200,000 cells) or NIH3T3 HRAS/G12V (50,000 cells) were inoculated subcutaneously into dorsal portion (both sides) of 6-week-old female BALB/c nu/nu mice (n. 31 mice/cell line) (Jackson Laboratories, Bar Harbor, Me.). After 4 days, before tumors had appeared, animals were randomly assigned to receive Pz-1 (1.0, 3.0 or 10 mg/kg daily) (23 mice/cell line: 8 mice/group for 1.0 and 3.0 mg/kg daily doses and 7 mice for 10 dose mg/kg daily) or vehicle control (8 mice) by oral gavage. Tumor diameters were measured with calipers every 1-2 days. Tumor volumes (V) were calculated by the rotational ellipsoid formula and reported as average volumes±standard deviations. […]
TT cells (7.5×10^6/mouse) were inoculated subcutaneously into dorsal portions (both sides) of 39 SCID mice (Jackson Laboratories, Bar Harbor, Me.). […] Tumor diameters were measured with callipers every week. Tumor volumes (V) were calculated by the rotational ellipsoid formula: V=A×B^2/2 (A=axial diameter; B=rotational diameter) and reported as average volumes±standard deviations. […] Anti-tumorigenic activity of Pz-1 was also assessed in nude mice implanted with RET/C634Y or HRAS(G12V) transformed NIH3T3 fibroblasts. […]

Chain of VEGFR2 (P35968 20-1356): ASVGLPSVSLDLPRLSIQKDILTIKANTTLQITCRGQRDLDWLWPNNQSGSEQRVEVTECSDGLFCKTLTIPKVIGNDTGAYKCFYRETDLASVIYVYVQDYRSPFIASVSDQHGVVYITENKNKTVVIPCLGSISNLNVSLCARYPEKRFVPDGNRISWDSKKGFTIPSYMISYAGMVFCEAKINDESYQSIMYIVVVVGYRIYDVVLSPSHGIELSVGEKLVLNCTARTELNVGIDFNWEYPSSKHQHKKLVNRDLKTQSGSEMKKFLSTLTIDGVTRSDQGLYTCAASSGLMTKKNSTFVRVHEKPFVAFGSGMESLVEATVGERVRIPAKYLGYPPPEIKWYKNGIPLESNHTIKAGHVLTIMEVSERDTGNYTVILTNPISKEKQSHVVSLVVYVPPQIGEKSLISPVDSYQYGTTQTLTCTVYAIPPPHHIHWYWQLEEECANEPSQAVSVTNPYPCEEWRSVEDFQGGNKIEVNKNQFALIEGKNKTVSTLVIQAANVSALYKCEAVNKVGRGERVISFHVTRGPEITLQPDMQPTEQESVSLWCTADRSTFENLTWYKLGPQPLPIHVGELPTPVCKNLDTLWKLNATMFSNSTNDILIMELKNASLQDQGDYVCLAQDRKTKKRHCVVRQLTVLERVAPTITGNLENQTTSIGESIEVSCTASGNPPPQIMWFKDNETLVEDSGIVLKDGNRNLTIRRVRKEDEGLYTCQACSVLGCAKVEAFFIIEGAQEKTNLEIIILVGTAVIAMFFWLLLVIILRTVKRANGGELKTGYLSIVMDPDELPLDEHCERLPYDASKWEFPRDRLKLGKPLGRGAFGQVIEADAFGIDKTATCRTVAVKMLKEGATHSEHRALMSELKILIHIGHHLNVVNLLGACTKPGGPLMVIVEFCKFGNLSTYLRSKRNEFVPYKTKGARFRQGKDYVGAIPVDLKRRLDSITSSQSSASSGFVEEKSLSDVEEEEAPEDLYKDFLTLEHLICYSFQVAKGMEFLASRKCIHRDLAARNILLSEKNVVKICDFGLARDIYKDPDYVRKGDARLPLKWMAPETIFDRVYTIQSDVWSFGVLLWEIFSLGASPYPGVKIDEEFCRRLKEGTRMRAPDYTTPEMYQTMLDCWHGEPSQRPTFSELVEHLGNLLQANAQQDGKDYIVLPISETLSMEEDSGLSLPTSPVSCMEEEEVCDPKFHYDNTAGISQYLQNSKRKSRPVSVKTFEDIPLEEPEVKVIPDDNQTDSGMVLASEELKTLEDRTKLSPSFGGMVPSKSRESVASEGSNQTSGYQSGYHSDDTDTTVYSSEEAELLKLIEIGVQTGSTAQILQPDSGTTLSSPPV
Chain of CYP3A4 (P08684 whole entry): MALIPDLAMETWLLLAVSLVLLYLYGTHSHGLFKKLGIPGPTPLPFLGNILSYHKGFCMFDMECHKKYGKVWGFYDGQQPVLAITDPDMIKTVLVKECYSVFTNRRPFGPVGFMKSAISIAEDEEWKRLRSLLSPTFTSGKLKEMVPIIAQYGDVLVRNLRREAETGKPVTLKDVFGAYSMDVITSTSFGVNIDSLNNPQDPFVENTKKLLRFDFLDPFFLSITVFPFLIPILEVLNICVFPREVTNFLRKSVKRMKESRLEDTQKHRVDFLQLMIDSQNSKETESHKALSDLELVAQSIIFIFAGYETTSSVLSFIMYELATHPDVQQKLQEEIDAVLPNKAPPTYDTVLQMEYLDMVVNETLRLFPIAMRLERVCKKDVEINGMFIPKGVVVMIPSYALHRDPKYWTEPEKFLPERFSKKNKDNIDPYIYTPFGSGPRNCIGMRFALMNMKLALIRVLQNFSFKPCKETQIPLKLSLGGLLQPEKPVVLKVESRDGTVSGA

Cn1cc(-c2ccc3c(c2)ncn3-c2ccc(CC(=O)Nc3cc(C(C)(C)C)on3)cc2)cn1 [Pz-1, N-(5-(tert-butyl)isoxazol-3-yl)-2-(4-(5-(1-methyl-1H-pyrazol-4-yl)-1H-benzo[d]imidazol-1-yl)phenyl)acetamide]
inhibition of VEGFR2 autophosphorylation ([1]; 1 nM, HEK 293 transiently transfected with VEGFR2, stimulated with VEGF): strongly inhibited | inhibition of VEGFR2 auto-phosphorylation ([1]; nanomolar concentrations): 90% | IC50 [2]: 7.4 µM | formation of tumors induced by RET cells [3]: totally prevented formation of tumors
